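Five compound concentrations were applied to cells in 96-well plates for 48 hours; endpoints were derived by simple linear interpolation of the resulting dose-response curve. GI50 = concentration required for 50% inhibition of growth. TGI denotes the concentration required for complete inhibition of growth.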
Tests used:
Assay in all cases: NCI tumour cell line growth inhibition, 48 h
[1] = test system: TK-10 renal
[2] = test system: HL-60(TB) leukemia
[3] = test system: SK-MEL-28 melanoma
[4] = test system: U251 CNS
[5] = test system: HT29 colon
[6] = test system: OVCAR-4 ovarian
[7] = test system: HOP-92 NSCLC
[8] = test system: IGROV1 ovarian
[9] = test system: LOX IMVI melanoma
[10] = test system: SF-295 CNS
[11] = test system: MDA-MB-231 breast
[12] = test system: SNB-19 CNS
[13] = test system: MDA-MB-468 breast
[14] = test system: NCI-H522 lung
[15] = test system: A549 NSCLC
[16] = test system: HOP-62 NSCLC
[17] = test system: NCI/ADR-RES ovarian
[18] = test system: MCF7 breast
[19] = test system: T-47D breast
[20] = test system: DU-145 prostate
[21] = test system: M14 melanoma
[22] = test system: RPMI-8226 leukemia
[23] = test system: UO-31 renal
[24] = test system: RXF 393 renal
[25] = test system: HCT-116 colon
[26] = test system: SN12C renal
[27] = test system: UACC-257 melanoma
[28] = test system: HCT-15 colon
[29] = test system: BT-549 breast
[30] = test system: OVCAR-3 ovarian
[31] = test system: UACC-62 melanoma
[32] = test system: CCRF-CEM leukemia
[33] = test system: SR leukemia
[34] = test system: MDA-MB-435
[35] = test system: KM12 colon
[36] = test system: MOLT-4 leukemia
[37] = test system: CAKI-1 renal
[38] = test system: MALME-3M melanoma
[39] = test system: PC-3 prostate
[40] = test system: SK-MEL-5 melanoma
[41] = test system: SK-OV-3 ovarian
[42] = test system: COLO 205 colon
[43] = test system: SW-620 colon
[44] = test system: ACHN renal
[45] = test system: OVCAR-5 ovarian
[46] = test system: NCI-H23 lung
[47] = test system: EKVX NSCLC
[48] = test system: SNB-75 CNS
[49] = test system: 786-0 renal
[50] = test system: K-562 leukemia
[51] = test system: HCC-2998 colon
[52] = test system: SF-539 CNS
[53] = test system: A498 renal
[54] = test system: SF-268 CNS
[55] = test system: SK-MEL-2 melanoma
[56] = test system: NCI-H460 lung
[57] = test system: HS 578T breast
[58] = test system: NCI-H226 lung
[59] = test system: OVCAR-8 ovarian

`CC[C@]12C=CCN3CC[C@@]4(c5ccc(OC)cc5N(C)[C@H]4[C@@](O)(C(=O)OC)[C@@H]1OC(=O)CCC[P+](c1ccc(C)cc1)(c1ccc(C)cc1)c1ccc(C)cc1)[C@@H]32` was tested, and the GI50 [1] was 602 nM, the TGI [1] was 1920 nM and the GI50 [2] was 0.178 µM. For the same molecule, the TGI [2] was 0.593 µM, the GI50 [3] was 383 nM and the TGI [3] was 1.46 µM. It also gave a GI50 [4] of 258 nM, a TGI [4] of 1400 nM and a GI50 [5] of 195 nM. For the same molecule, the TGI [5] was 0.446 µM, the GI50 [6] was 352 nM and the TGI [6] was 1580 nM. For the same molecule, the GI50 [7] was 173 nM, the TGI [7] was 0.578 µM and the GI50 [8] was 336 nM. It also gave a TGI [8] of 1.18 µM, a GI50 [9] of 327 nM and a TGI [9] of 1140 nM. It also gave a GI50 [10] of 0.371 µM, a TGI [10] of 1310 nM and a GI50 [11] of 234 nM. It also gave a TGI [11] of 0.61 µM, a GI50 [12] of 290 nM and a TGI [12] of 1140 nM. It also gave a GI50 [13] of 133 nM, a TGI [13] of 354 nM and a GI50 [14] of 264 nM. For the same molecule, the TGI [14] was 0.929 µM, the GI50 [15] was 0.369 µM and the TGI [15] was 1470 nM. The GI50 [16] was 0.311 µM, the TGI [16] was 1.17 µM and the GI50 [17] was 8.87 µM. For the same molecule, the TGI [17] was 49.6 µM, the GI50 [18] was 229 nM and the TGI [18] was 0.968 µM. The GI50 [19] was 247 nM, the TGI [19] was 0.907 µM and the GI50 [20] was 427 nM. The TGI [20] was 1580 nM, the GI50 [21] was 384 nM and the TGI [21] was 1.37 µM. It also gave a GI50 [22] of 0.128 µM, a TGI [22] of 1040 nM and a GI50 [23] of 1450 nM. It also gave a TGI [23] of 2820 nM, a GI50 [24] of 256 nM and a TGI [24] of 0.911 µM. It also gave a GI50 [25] of 271 nM, a TGI [25] of 1.11 µM and a GI50 [26] of 0.264 µM. For the same molecule, the TGI [26] was 949 nM, the GI50 [27] was 0.31 µM and the TGI [27] was 1.12 µM. For the same molecule, the GI50 [28] was 1630 nM, the TGI [28] was 3.04 µM and the GI50 [29] was 227 nM. For the same molecule, the TGI [29] was 727 nM, the GI50 [30] was 337 nM and the TGI [30] was 1270 nM. It also gave a GI50 [31] of 247 nM, a TGI [31] of 0.822 µM and a GI50 [32] of 301 nM. It also gave a TGI [32] of 1450 nM, a GI50 [33] of 294 nM and a TGI [33] of 1400 nM. For the same molecule, the GI50 [34] was 290 nM, the TGI [34] was 1.04 µM and the GI50 [35] was 0.309 µM. It also gave a TGI [35] of 1110 nM, a GI50 [36] of 0.32 µM and a TGI [36] of 1460 nM. For the same molecule, the GI50 [37] was 1.33 µM, the TGI [37] was 3.05 µM and the GI50 [38] was 189 nM. The TGI [38] was 0.448 µM, the GI50 [39] was 236 nM and the TGI [39] was 1.08 µM. For the same molecule, the GI50 [40] was 356 nM, the TGI [40] was 1.04 µM and the GI50 [41] was 262 nM. For the same molecule, the TGI [41] was 0.794 µM, the GI50 [42] was 180 nM and the TGI [42] was 0.364 µM. For the same molecule, the GI50 [43] was 399 nM, the TGI [43] was 1.58 µM and the GI50 [44] was 1320 nM. For the same molecule, the TGI [44] was 2700 nM, the GI50 [45] was 0.267 µM and the TGI [45] was 0.905 µM. The GI50 [46] was 282 nM, the TGI [46] was 1.02 µM and the GI50 [47] was 0.46 µM. For the same molecule, the TGI [47] was 1780 nM, the GI50 [48] was 217 nM and the TGI [48] was 0.777 µM. For the same molecule, the GI50 [49] was 0.756 µM, the TGI [49] was 2.08 µM and the GI50 [50] was 140 nM. For the same molecule, the TGI [50] was 1150 nM, the GI50 [51] was 319 nM and the TGI [51] was 1.2 µM. For the same molecule, the GI50 [52] was 313 nM, the TGI [52] was 1100 nM and the GI50 [53] was 1560 nM. For the same molecule, the TGI [53] was 3.23 µM, the GI50 [54] was 335 nM and the TGI [54] was 1420 nM.

Work on `CC(C)c1sc(NC(=O)c2cc(NC(=O)c3cc(NC(=O)c4cscn4)cn3C)cn2C)nc1C(=O)NCCCN(C)C` yielded a GI50 [1] greater than 28300 nM, a TGI [1] greater than 28300 nM and a GI50 [2] of 6.12 µM. For the same molecule, the TGI [2] was 18.8 µM, the GI50 [3] was 3170 nM and the TGI [3] was 11.9 µM. It also gave a GI50 [55] of 3.75 µM, a TGI [55] of 7.88 µM and a GI50 [4] of 1140 nM. For the same molecule, the TGI [4] was greater than 28300 nM, the GI50 [5] was 5350 nM and the TGI [5] was 10.9 µM. For the same molecule, the GI50 [6] was 5340 nM, the TGI [6] was greater than 28300 nM and the GI50 [7] was 846 nM. For the same molecule, the TGI [7] was 9.01 µM, the GI50 [8] was 4480 nM and the TGI [8] was 12.3 µM. For the same molecule, the GI50 [9] was 739 nM, the TGI [9] was 2210 nM and the GI50 [10] was 9.83 µM. It also gave a TGI [10] greater than 28300 nM, a GI50 [11] of 5630 nM and a TGI [11] of 21.8 µM. It also gave a GI50 [12] of 838 nM, a TGI [12] greater than 28300 nM and a GI50 [13] of 1030 nM. It also gave a TGI [13] of 4680 nM, a GI50 [14] of 1080 nM and a TGI [14] of 5.58 µM. For the same molecule, the GI50 [15] was 9.72 µM, the TGI [15] was greater than 28300 nM and the GI50 [16] was 6.43 µM. It also gave a TGI [16] of 19.6 µM, a GI50 [17] greater than 28.3 µM and a TGI [17] greater than 28.3 µM. For the same molecule, the GI50 [18] was 3580 nM, the TGI [18] was 10.4 µM and the GI50 [56] was 7.6 µM. It also gave a TGI [56] of 22 µM, a GI50 [19] of 1070 nM and a TGI [19] of 12.5 µM. It also gave a GI50 [57] of 4.55 µM, a TGI [57] of 26.4 µM and a GI50 [20] of 5490 nM. For the same molecule, the TGI [20] was greater than 28300 nM, the GI50 [21] was 5250 nM and the TGI [21] was 14.2 µM. For the same molecule, the GI50 [22] was 28.1 µM, the TGI [22] was greater than 28300 nM and the GI50 [23] was greater than 28300 nM. It also gave a TGI [23] greater than 28300 nM, a GI50 [24] of 1840 nM and a TGI [24] of 6.99 µM. For the same molecule, the GI50 [25] was 2290 nM, the TGI [25] was 8.44 µM and the GI50 [26] was 5.89 µM. The TGI [26] was greater than 28300 nM, the GI50 [27] was 5.78 µM and the TGI [27] was 16.8 µM. The GI50 [28] was greater than 28300 nM, the TGI [28] was greater than 28.3 µM and the GI50 [29] was 994 nM. It also gave a TGI [29] of 4450 nM, a GI50 [58] of 3.22 µM and a TGI [58] greater than 28.3 µM. For the same molecule, the GI50 [30] was 2030 nM, the TGI [30] was greater than 28300 nM and the GI50 [31] was 3570 nM. The TGI [31] was 7.22 µM, the GI50 [32] was 2140 nM and the TGI [32] was greater than 28300 nM. The GI50 [34] was 3860 nM, the TGI [34] was 19.8 µM and the GI50 [35] was 11.3 µM. The TGI [35] was greater than 28300 nM, the GI50 [36] was 9.35 µM and the TGI [36] was greater than 28300 nM. The GI50 [59] was 7.86 µM, the TGI [59] was 26 µM and the GI50 [37] was 17.5 µM. It also gave a TGI [37] greater than 28.3 µM, a GI50 [38] of 3780 nM and a TGI [38] of 8.26 µM. The GI50 [39] was 1250 nM, the TGI [39] was 24.8 µM and the GI50 [40] was 5350 nM. It also gave a TGI [40] of 11.1 µM, a GI50 [41] of 1370 nM and a TGI [41] of 16.3 µM. For the same molecule, the GI50 [42] was 1860 nM, the TGI [42] was 5.68 µM and the GI50 [43] was 4210 nM. It also gave a TGI [43] of 16.3 µM, a GI50 [44] greater than 28300 nM and a TGI [44] greater than 28300 nM. It also gave a GI50 [45] of 6.29 µM, a TGI [45] of 21 µM and a GI50 [46] of 4510 nM. It also gave a TGI [46] of 10.4 µM, a GI50 [47] of 5.84 µM and a TGI [47] greater than 28300 nM. It also gave a GI50 [48] of 829 nM, a TGI [48] of 11.7 µM and a GI50 [49] of 6.16 µM. For the same molecule, the TGI [49] was 15.5 µM, the GI50 [50] was 1850 nM and the TGI [50] was greater than 28300 nM. For the same molecule, the GI50 [51] was 3860 nM, the TGI [51] was 7.92 µM and the GI50 [52] was 1080 nM. It also gave a TGI [52] of 4510 nM, a GI50 [53] greater than 28300 nM and a TGI [53] greater than 28.3 µM. The GI50 [54] was 2630 nM and the TGI [54] was greater than 28300 nM.
